Assay results published in patent publication US9290505B2, “Substituted imidazo[1,2-a]pyrazines as Syk inhibitors” (Gilead Sciences, Inc., priority 2013, dated 2016).
In brackets after ≈: the same amount, converted by molar mass.

Columns and labels:
Syk = Syk (Homo sapiens (Human), UniProt P43405); experiment: High Throughput Syk Biochemical Assay (KinEASE TR-FRET)
Description: Syk activity was measured using KinEASE (Cisbio), a time-resolved fluorescence resonance energy transfer (TR-FRET) immunoassay. In this assay, Syk-catalyzes the phosphorylation of a XL665-labeled peptide substrate. Europium conjugated phospho-tyrosine specific antibody binds the resulting phosphorylated peptide. Formation of phosphorylated peptide is quantified by TR-FRET with Europium as the donor and XL665 the acceptor in a 2-step endpoint assay. In brief, test compounds serially diluted in DMSO were delivered into Corning white, low volume, non-binding 384 well plates using the Echo 550 acoustic liquid dispenser (Labcyte®). Syk enzyme and substrates were dispensed into assay plates using a Multi-Flo (Bio-Tek Instruments).

[1] = Kinetic solubility in phosphate buffer at pH 7.4; format: physicochemical
Description: The kinetic solubility of compounds in phosphate buffer at pH 7.4 was assessed. The compounds to be tested were dissolved in dimethylsulfoxide at a 10 mM concentration. Stock samples were diluted, 3 μl with 297 μl of the phosphate buffer at pH 7.4 (DulBecco's phosphate buffered saline (Sigma-Aldrich D8662), overall molarity is 0.149M and pH 7.43). The samples were then incubated for 24 hours at 37° C. with shaking, the centrifuged and an aliquot taken and tested relative to a known standard concentration of 0.1 mM.

human hepatocytes = experiment: Human Hepatocyte Stability Assay; format: in vitro ADME; conditions: predicted hepatocyte clearance, 1 μM compound
Description: The human […] stability of the compounds as predicted hepatocyte clearance in L/hr/kg was assessed. Compounds to be tested were diluted to 200 μM (4 μl of 10 mM DMSO stock into 196 μl ACN:H2O (50:50). Propranolol was used as a positive control, and buffer only without hepatocytes as 0% control. These were further diluted 4 μl with 891 μl KHB buffer (InVitroGRO catalog number Z99074) to provide 2× dosing solution. To each well of 24 well plate, 250 μl of the 2× dosing solution was added to each well with 250 μl of hepatocytes cells (1×10^6 viable cells/ml per well) or KHB for control samples to achieve a final compound concentration of 1 μM during incubation. The final solvent concentration was 0.01% DMSO and 0.25% ACN. The culture plate was placed on a rocker and incubated at 37° C., 5% CO2. Samples were collected at time 0, 1, 3, and 6 hours. The loss of parent compound was determined using LC-MS methods against a standard curve.

[2] = comparison table with known Syk inhibitors
[3] = phosphate buffer, 37 °C, aqueous buffer, kinetic from dmso stock, comparison table, kinetic solubility pH 7.4
[4] = aqueous buffer, kinetic from dmso stock, kinetic solubility, phosphate buffer pH 7.4, 24 hours at 37° C.
[5] = comparison table, kinetic solubility pH 7.4

IC50 (Syk; [2]) | solubility at 24 h [1, 3] | IC50 (Syk; 20 μM ATP, 0.015 nM Syk) | solubility at 24 h [1, 4] | solubility at 24 h [1, 5] | Hheps CL (human hepatocytes) | Compound
188 nM | 3 µM (≈ 1.08 µg/mL) | – | – | – | – | COc1ccc(Nc2nc(-c3cccc(N)c3)cn3ccnc23)cc1OC [6-(3-aminophenyl)-N-(3,4-dimethoxyphenyl)imidazo[1,2-a]pyrazin-8-amine, reference compound]
16 nM | 5 µM (≈ 2.01 µg/mL) | – | – | – | – | Cc1ncc(-c2cn3ccnc3c(Nc3ccc(N4CCOCC4)cc3)n2)cc1N [6-(5-amino-6-methylpyridin-3-yl)-N-(4-morpholinophenyl)imidazo[1,2-a]pyrazin-8-amine, reference compound]
31 nM | 5 µM (≈ 1.94 µg/mL) | – | – | – | – | Nc1cncc(-c2cn3ccnc3c(Nc3ccc(N4CCOCC4)cc3)n2)c1 [6-(5-aminopyridin-3-yl)-N-(4-morpholinophenyl)imidazo[1,2-a]pyrazin-8-amine, reference compound]
53 nM | 10 µM (≈ 3.62 µg/mL) | – | – | – | – | COc1ccc(Nc2nc(-c3ccc(N)nc3)cn3ccnc23)cc1OC [6-(6-aminopyridin-3-yl)-N-(3,4-dimethoxyphenyl)imidazo[1,2-a]pyrazin-8-amine, reference compound]
6.2 nM | – | 6.2 nM | 95 µM (≈ 43.5 µg/mL) | 95 µM (≈ 43.5 µg/mL) | 2 mL/min/kg | Cc1ncc(-c2cn3ccnc3c(Nc3ccc(N4CCN(C5COC5)CC4)cc3)n2)nc1N [Ex.-1, 6-(6-amino-5-methylpyrazin-2-yl)-N-(4-(4-(oxetan-3-yl)piperazin-1-yl)phenyl)imidazo[1,2-a]pyrazin-8-amine]
– | – | – | 95 µM (≈ 42.1 µg/mL) | 95 µM (≈ 42.1 µg/mL) | 0.917 mL/min/kg | Nc1cncc(-c2cn3ccnc3c(Nc3ccc(N4CCN(C5COC5)CC4)cc3)n2)n1 [Ex.-2, 6-(6-aminopyrazin-2-yl)-N-(4-(4-(oxetan-3-yl)piperazin-1-yl)phenyl)imidazo[1,2-a]pyrazin-8-amine]
13.3 nM | – | 13.3 nM | 91 µM (≈ 38.1 µg/mL) | 91 µM (≈ 38.1 µg/mL) | 1.5 mL/min/kg | Nc1cncc(-c2cn3ccnc3c(Nc3ccc(N4CCO[C@@H](CO)C4)cc3)n2)n1 [Ex.-3, (R)-(4-(4-((6-(6-aminopyrazin-2-yl)imidazo[1,2-a]pyrazin-8-yl)amino)phenyl)morpholin-2-yl)methanol]
44 nM | – | 44 nM | 100 µM (≈ 45.8 µg/mL) | 100 µM (≈ 45.8 µg/mL) | 1.3 mL/min/kg | Cc1c(-c2cncc(N)n2)nc(Nc2ccc(N3CCN(C4COC4)CC3)cc2)c2nccn12 [Ex.-4, 6-(6-aminopyrazin-2-yl)-5-methyl-N-(4-(4-(oxetan-3-yl)piperazin-1-yl)phenyl)imidazo[1,2-a]pyrazin-8-amine]
12.2 nM | – | 12.2 nM | 97 µM (≈ 48.8 µg/mL) | 97 µM (≈ 48.8 µg/mL) | 1.2 mL/min/kg | Nc1cncc(-c2cn3ccnc3c(Nc3ccc(N4CCN(C5COC5)CC4)c(OCCO)c3)n2)n1 [Ex.-5, 2-(5-((6-(6-aminopyrazin-2-yl)imidazo[1,2-a]pyrazin-8-yl)amino)-2-(4-(oxetan-3-yl)piperazin-1-yl)phenoxy)ethanol]
14.5 nM | – | 14.5 nM | 99 µM (≈ 47.1 µg/mL) | 99 µM (≈ 47.1 µg/mL) | 1.3 mL/min/kg | Nc1cncc(-c2cn3ccnc3c(Nc3ccc(N4CCN(CC(CO)CO)CC4)cc3)n2)n1 [Ex.-6, 2-((4-(4-((6-(6-aminopyrazin-2-yl)imidazo[1,2-a]pyrazin-8-yl)amino)phenyl)piperazin-1-yl)methyl)propane-1,3-diol]
8.7 nM | – | 8.7 nM | – | – | 0.83 mL/min/kg | Cc1ncc(-c2cn3ccnc3c(Nc3ccc(N4CCN(C5COC5)CC4)c(OCCO)c3)n2)nc1N [Ex.-7, 2-(5-((6-(6-amino-5-methylpyrazin-2-yl)imidazo[1,2-a]pyrazin-8-yl)amino)-2-(4-(oxetan-3-yl)piperazin-1-yl)phenoxy)ethanol]
